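Briefly, cells in 96-well plates were exposed to five compound concentrations for 48 h, and endpoints were estimated by linear interpolation. Definition used: TGI = concentration required for complete inhibition of growth.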
Tests used:
Assay in all cases: NCI tumour cell line growth inhibition, 48 h
[1] = test system: SR leukemia
[2] = test system: NCI-H460 lung
[3] = test system: OVCAR-3 ovarian
[4] = test system: CAKI-1 renal
[5] = test system: NCI-H226 lung
[6] = test system: EKVX NSCLC
[7] = test system: MOLT-4 leukemia
[8] = test system: HCT-116 colon
[9] = test system: M14 melanoma
[10] = test system: A498 renal
[11] = test system: K-562 leukemia
[12] = test system: HOP-62 NSCLC
[13] = test system: SN12C renal
[14] = test system: U251 CNS
[15] = test system: HCC-2998 colon
[16] = test system: LOX IMVI melanoma
[17] = test system: HOP-18 NSCLC
[18] = test system: SK-MEL-5 melanoma
[19] = test system: UACC-62 melanoma
[20] = test system: HOP-92 NSCLC
[21] = test system: RPMI-8226 leukemia
[22] = test system: A549 NSCLC
[23] = test system: RXF 393 renal
[24] = test system: LXFL 529 NSCLC
[25] = test system: SF-268 CNS
[26] = test system: SK-MEL-2 melanoma
[27] = test system: HT29 colon
[28] = test system: SW-620 colon
[29] = test system: HCT-15 colon
[30] = test system: HL-60(TB) leukemia
[31] = test system: KM20L2 colon
[32] = test system: OVCAR-8 ovarian
[33] = test system: IGROV1 ovarian
[34] = test system: KM12 colon
[35] = test system: CCRF-CEM leukemia
[36] = test system: SNB-19 CNS
[37] = test system: MALME-3M melanoma
[38] = test system: SF-295 CNS
[39] = test system: M19-MEL melanoma
[40] = test system: SNB-75 CNS
[41] = test system: COLO 205 colon
[42] = test system: NCI-H522 lung
[43] = test system: RXF-631 renal
[44] = test system: NCI-H23 lung
[45] = test system: SNB-78 CNS
[46] = test system: DLD-1 colon
[47] = test system: UO-31 renal
[48] = test system: UACC-257 melanoma
[49] = test system: ACHN renal
[50] = test system: OVCAR-5 ovarian
[51] = test system: SK-MEL-28 melanoma
[52] = test system: TK-10 renal
[53] = test system: SK-OV-3 ovarian
[54] = test system: DMS 114 small cell lung
[55] = test system: 786-0 renal
[56] = test system: DMS 273 small cell lung
[57] = test system: SF-539 CNS
[58] = test system: XF 498 CNS
[59] = test system: OVCAR-4 ovarian

CCCCCCCCSC(SCCCCCCCC)=C1C(=O)N(c2ccccc2)N=C1C
TGI [1]: 34.6 µM | TGI [2]: > 100 µM | TGI [3]: > 100 µM | TGI [4]: 90.7 µM | TGI [5]: > 100 µM | TGI [6]: > 100 µM | TGI [7]: 82.2 µM | TGI [8]: 38.7 µM | TGI [9]: > 100 µM | TGI [10]: 92.7 µM | TGI [11]: 84.6 µM | TGI [12]: > 100 µM | TGI [13]: > 100 µM | TGI [14]: 34 µM | TGI [15]: > 100 µM | TGI [16]: 36.2 µM | TGI [17]: > 100 µM | TGI [18]: > 100 µM | TGI [19]: > 100 µM | TGI [20]: 77.8 µM | TGI [21]: 61.9 µM | TGI [22]: > 100 µM | TGI [23]: > 100 µM | TGI [24]: > 100 µM | TGI [25]: > 100 µM | TGI [26]: > 100 µM | TGI [27]: > 100 µM | TGI [28]: 29 µM | TGI [29]: > 100 µM | TGI [30]: 43.7 µM | TGI [31]: > 100 µM | TGI [32]: > 100 µM | TGI [33]: > 100 µM | TGI [34]: > 100 µM | TGI [35]: 44 µM | TGI [36]: > 100 µM | TGI [37]: > 100 µM | TGI [38]: > 100 µM | TGI [39]: > 100 µM | TGI [40]: > 100 µM | TGI [41]: 46.5 µM | TGI [42]: 57.1 µM | TGI [43]: > 100 µM | TGI [44]: 95.1 µM | TGI [45]: > 100 µM | TGI [46]: 50 µM | TGI [47]: > 100 µM | TGI [48]: 93.1 µM | TGI [49]: > 100 µM | TGI [50]: > 100 µM | TGI [51]: > 100 µM | TGI [52]: > 100 µM | TGI [53]: > 100 µM | TGI [54]: 63.3 µM | TGI [55]: > 100 µM | TGI [56]: > 100 µM

Cc1ccc(C)c(NC(=O)CCc2n[nH]c(=S)o2)c1
TGI [1]: > 100 µM | TGI [2]: > 100 µM | TGI [3]: > 100 µM | TGI [4]: > 100 µM | TGI [5]: > 100 µM | TGI [6]: > 100 µM | TGI [7]: > 100 µM | TGI [8]: > 100 µM | TGI [9]: > 100 µM | TGI [10]: > 100 µM | TGI [11]: > 100 µM | TGI [12]: > 100 µM | TGI [13]: > 100 µM | TGI [14]: > 100 µM | TGI [15]: > 100 µM | TGI [16]: > 100 µM | TGI [17]: > 100 µM | TGI [18]: > 100 µM | TGI [19]: > 100 µM | TGI [20]: > 100 µM | TGI [22]: > 100 µM | TGI [23]: > 100 µM | TGI [24]: > 100 µM | TGI [25]: > 100 µM | TGI [27]: > 100 µM | TGI [28]: > 100 µM | TGI [29]: > 100 µM | TGI [30]: > 100 µM | TGI [31]: > 100 µM | TGI [57]: > 100 µM | TGI [32]: > 100 µM | TGI [33]: > 100 µM | TGI [34]: > 100 µM | TGI [35]: > 100 µM | TGI [36]: > 100 µM | TGI [37]: > 100 µM | TGI [38]: > 100 µM | TGI [39]: > 100 µM | TGI [58]: > 100 µM | TGI [40]: > 100 µM | TGI [41]: > 100 µM | TGI [42]: > 100 µM | TGI [43]: > 100 µM | TGI [44]: > 100 µM | TGI [45]: > 100 µM | TGI [46]: > 100 µM | TGI [47]: > 100 µM | TGI [48]: > 100 µM | TGI [49]: > 100 µM | TGI [59]: > 100 µM | TGI [50]: > 100 µM | TGI [51]: > 100 µM | TGI [52]: > 100 µM | TGI [54]: > 100 µM | TGI [55]: > 100 µM | TGI [56]: > 100 µM

— PubChem BioAssay (NCI)
